Positions of bridges follow the written chain, without caps; N, C: chain ends. Non-standard residues stand in square brackets, D forms with d. Residues, ends and D or L forms follow the SMILES beside them. *: point of attachment. Ileψ(thiazoline)Cys = CC[C@H](C)[C@H](N)C1=N[C@H](C(=O)*)CS1; dOrn = NCCC[C@@H](N)C(=O)O
How the values were obtained:
Homo sapiens [1] = species on record: Homo sapiens; experiment: Liver toxicity in human assessed as induction of drug-induced liver injury by measuring severity class index
Homo sapiens [2] = species on record: Homo sapiens; experiment: Liver toxicity in human assessed as induction of drug-induced liver injury by measuring verified drug-induced liver injury concern status
For DILI severity class in this document: key of the grades not given here.

Compound | DILI_severity_class (Homo sapiens [1]) | DILI_Concern (Homo sapiens [2])
CC(C)c1c(C(=O)Nc2ccccc2)c(-c2ccccc2)c(-c2ccc(F)cc2)n1CC[C@@H](O)C[C@@H](O)CC(=O)O [ATORVASTATIN] | 5 | Most-Dili-Concern
O=C1C(O)=C([C@H]2CC[C@H](c3ccc(Cl)cc3)CC2)C(=O)c2ccccc21 [ATOVAQUONE] | 8 | Ambiguous-Dili-Concern
CN1[C@@H]2CC[C@H]1C[C@@H](OC(=O)C(CO)c1ccccc1)C2 (stereo partly specified) [ATROPINE] | 0 | No-Dili-Concern
Nc1ncn([C@@H]2O[C@H](CO)[C@@H](O)[C@H]2O)c(=O)n1 [AZACITIDINE] | 8 | Ambiguous-Dili-Concern
Cn1cnc([N+](=O)[O-])c1Sc1ncnc2nc[nH]c12 [AZATHIOPRINE] | 5 | Most-Dili-Concern
CC[C@H]1OC(=O)[C@H](C)[C@@H](O[C@H]2C[C@@](C)(OC)[C@@H](O)[C@H](C)O2)[C@H](C)[C@@H](O[C@@H]2O[C@H](C)C[C@H](N(C)C)[C@H]2O)[C@](C)(O)C[C@@H](C)CN(C)[C@H](C)[C@@H](O)[C@]1(C)O [AZITHROMYCIN] | 7 | Less-Dili-Concern
C[C@H]1[C@H](NC(=O)/C(=N\OC(C)(C)C(=O)O)c2csc(N)n2)C(=O)N1S(=O)(=O)O [AZTREONAM] | 5 | Ambiguous-Dili-Concern
CC[C@H](C)[C@H](N)C1=N[C@H](C(=O)N[C@@H](CC(C)C)C(=O)N[C@H](CCC(=O)O)C(=O)N[C@H](C(=O)N[C@H]2CCCCNC(=O)[C@H](CC(N)=O)NC(=O)[C@@H](CC(=O)O)NC(=O)[C@H](Cc3cnc[nH]3)NC(=O)[C@@H](Cc3ccccc3)NC(=O)[C@H]([C@@H](C)CC)NC(=O)[C@@H](CCCN)NC2=O)[C@@H](C)CC)CS1 [BACITRACIN] ({Ileψ(thiazoline)Cys}-L[dE]IK[dOrn]I[dF]H[dD]N; lactam 4-C) | 0 | No-Dili-Concern
NCC(CC(=O)O)c1ccc(Cl)cc1 (stereo unspecified) [BACLOFEN] | 3 | Less-Dili-Concern
O=C(O)CCNC(=O)c1ccc(/N=N/c2ccc(O)c(C(=O)O)c2)cc1 [BALSALAZIDE] | 8 | Ambiguous-Dili-Concern
CCOC(=O)[C@H](CCc1ccccc1)N[C@H]1CCc2ccccc2N(CC(=O)O)C1=O [BENAZEPRIL] | 4 | Less-Dili-Concern
Cn1c(CCCC(=O)O)nc2cc(N(CCCl)CCCl)ccc21 [BENDAMUSTINE] | 0 | No-Dili-Concern
O=C(O)COc1nn(Cc2ccccc2)c2ccccc12 [BENDAZAC] | 8 | Most-Dili-Concern
NS(=O)(=O)c1cc2c(cc1C(F)(F)F)NC(Cc1ccccc1)NS2(=O)=O (stereo unspecified) [BENDROFLUMETHIAZIDE] | 5 | Less-Dili-Concern
CC(C(=O)O)c1ccc2oc(-c3ccc(Cl)cc3)nc2c1 (stereo unspecified) [BENOXAPROFEN] | 8 | Most-Dili-Concern
CCc1oc2ccccc2c1C(=O)c1ccc(O)cc1 [BENZARONE] | 8 | Most-Dili-Concern
CCc1oc2ccccc2c1C(=O)c1cc(Br)c(O)c(Br)c1 [BENZBROMARONE] | 8 | Most-Dili-Concern
CCc1oc2ccccc2c1C(=O)c1cc(I)c(O)c(I)c1 [BENZIODARONE] | 8 | Most-Dili-Concern
CCCCNc1ccc(C(=O)OCCOCCOCCOCCOCCOCCOCCOCCOCCOC)cc1 [BENZONATATE] | 0 | Less-Dili-Concern
C[C@@H](Cc1ccccc1)N(C)Cc1ccccc1 [BENZPHETAMINE] | 0 | No-Dili-Concern
CN1[C@@H]2CC[C@H]1C[C@@H](OC(c1ccccc1)c1ccccc1)C2 [BENZTROPINE] | 0 | No-Dili-Concern
C[N+](C)(C)CC(=O)O [BETAINE] | 0 | No-Dili-Concern
CC(C)NCC(O)COc1ccc(CCOCC2CC2)cc1 (stereo unspecified) [BETAXOLOL] | 3 | Ambiguous-Dili-Concern
CC(C[N+](C)(C)C)OC(N)=O (stereo unspecified) [BETHANECHOL] | 0 | No-Dili-Concern
C=C(c1ccc(C(=O)O)cc1)c1cc2c(cc1C)C(C)(C)CCC2(C)C [BEXAROTENE] | 8 | Most-Dili-Concern
CC(O)(CS(=O)(=O)c1ccc(F)cc1)C(=O)Nc1ccc(C#N)c(C(F)(F)F)c1 (stereo unspecified) [BICALUTAMIDE] | 8 | Most-Dili-Concern
OC(CCN1CCCCC1)(c1ccccc1)C1CC2C=CC1C2 (stereo unspecified) [BIPERIDEN] | 0 | No-Dili-Concern

Compound | DILI_severity_class (Homo sapiens [1]) | DILI_Concern (Homo sapiens [2])
CC(=O)Oc1ccc(C(c2ccc(OC(C)=O)cc2)c2ccccn2)cc1 [BISACODYL] | 0 | No-Dili-Concern
CC(C)NCC(O)COc1ccc(COCCOC(C)C)cc1 (stereo unspecified) [BISOPROLOL] | 3 | Ambiguous-Dili-Concern
CC(C)C[C@H](NC(=O)[C@H](Cc1ccccc1)NC(=O)c1cnccn1)B(O)O [BORTEZOMIB] | 7 | Most-Dili-Concern
COc1ccccc1Oc1c(NS(=O)(=O)c2ccc(C(C)(C)C)cc2)nc(-c2ncccn2)nc1OCCO [BOSENTAN] | 7 | Most-Dili-Concern
Nc1c(CC(=O)O)cccc1C(=O)c1ccc(Br)cc1 [BROMFENAC] | 8 | Most-Dili-Concern
CC(C)C[C@H]1C(=O)N2CCC[C@H]2[C@]2(O)O[C@](NC(=O)[C@@H]3C=C4c5cccc6[nH]c(Br)c(c56)C[C@H]4N(C)C3)(C(C)C)C(=O)N12 [BROMOCRIPTINE] | 3 | Less-Dili-Concern
CN(C)CCC(c1ccc(Br)cc1)c1ccccn1 (stereo unspecified) [BROMPHENIRAMINE] | 0 | No-Dili-Concern
CCCC1O[C@@H]2C[C@H]3[C@@H]4CCC5=CC(=O)C=C[C@]5(C)[C@H]4[C@@H](O)C[C@]3(C)[C@]2(C(=O)CO)O1 (stereo partly specified) [BUDESONIDE] | 0 | No-Dili-Concern
CCCCNc1cc(C(=O)O)cc(S(N)(=O)=O)c1Oc1ccccc1 [BUMETANIDE] | 3 | Ambiguous-Dili-Concern
CC(NC(C)(C)C)C(=O)c1cccc(Cl)c1 (stereo unspecified) [BUPROPION] | 5 | Less-Dili-Concern
O=C1CC2(CCCC2)CC(=O)N1CCCCN1CCN(c2ncccn2)CC1 [BUSPIRONE] | 3 | Ambiguous-Dili-Concern
CS(=O)(=O)OCCCCOS(C)(=O)=O [BUSULFAN] | 8 | Most-Dili-Concern
CCC(C)C1(CC)C(=O)NC(=O)NC1=O (stereo unspecified) [BUTABARBITAL] | 3 | Ambiguous-Dili-Concern
Oc1ccc2c(c1)[C@@]13CCCC[C@@]1(O)[C@@H](C2)N(CC1CCC1)CC3 [BUTORPHANOL] | 0 | No-Dili-Concern
C=CCN1C[C@H](C(=O)N(CCCN(C)C)C(=O)NCC)C[C@@H]2c3cccc4[nH]cc(c34)C[C@H]21 [CABERGOLINE] | 0 | No-Dili-Concern
Cn1c(=O)c2c(ncn2C)n(C)c1=O [CAFFEINE] | 0 | No-Dili-Concern
CC(C)C[C@H](NC(=O)[C@H](CCCCN)NC(=O)CNC(=O)[C@H](CC(C)C)NC(=O)[C@@H](NC(=O)[C@@H]1CSSC[C@H](N)C(=O)N[C@@H](CO)C(=O)N[C@@H](CC(N)=O)C(=O)N[C@@H](CC(C)C)C(=O)N[C@@H](CO)C(=O)N[C@@H]([C@@H](C)O)C(=O)N1)C(C)C)C(=O)N[C@@H](CO)C(=O)N[C@@H](CCC(N)=O)C(=O)N[C@@H](CCC(=O)O)C(=O)N[C@@H](CC(C)C)C(=O)N[C@@H](Cc1c[nH]cn1)C(=O)N[C@@H](CCCCN)C(=O)N[C@@H](CC(C)C)C(=O)N[C@@H](CCC(N)=O)C(=O)N[C@H](C(=O)N[C@@H](Cc1ccc(O)cc1)C(=O)N1CCC[C@H]1C(=O)N[C@@H](CCCNC(=N)N)C(=O)N[C@H](C(=O)N[C@@H](CC(N)=O)C(=O)N[C@H](C(=O)NCC(=O)N[C@@H](CO)C(=O)NCC(=O)N[C@H](C(=O)N1CCC[C@H]1C(N)=O)[C@@H](C)O)[C@@H](C)O)[C@@H](C)O)[C@@H](C)O [CALCITONIN SALMON] | 0 | No-Dili-Concern
C=C1/C(=C\C=C2/CCC[C@]3(C)[C@@H]([C@H](C)CCCC(C)(C)O)CC[C@@H]23)C[C@@H](O)C[C@@H]1O [CALCITRIOL] | 0 | No-Dili-Concern
CC(=O)[O-].CC(=O)[O-].[Ca+2] [CALCIUM ACETATE] | 0 | No-Dili-Concern
CCCCCOC(=O)Nc1nc(=O)n([C@@H]2O[C@H](C)[C@@H](O)[C@H]2O)cc1F [CAPECITABINE] | 2 | Ambiguous-Dili-Concern
C[C@H](CS)C(=O)N1CCC[C@H]1C(=O)O [CAPTOPRIL] | 7 | Less-Dili-Concern
NC(=O)N1c2ccccc2C=Cc2ccccc21 [CARBAMAZEPINE] | 7 | Most-Dili-Concern
CC1(C)S[C@@H]2[C@H](NC(=O)C(C(=O)O)c3ccccc3)C(=O)N2[C@H]1C(=O)O (stereo partly specified) [CARBENICILLIN] | 3 | Less-Dili-Concern
C[C@@](Cc1ccc(O)c(O)c1)(NN)C(=O)O [CARBIDOPA ANHYDROUS] | 3 | Ambiguous-Dili-Concern
CN(C)CCOC(c1ccc(Cl)cc1)c1ccccn1 (stereo unspecified) [CARBINOXAMINE] | 0 | No-Dili-Concern
CCCCC[C@](C)(O)/C=C/[C@@H]1[C@@H](C/C=C\CCCC(=O)O)[C@@H](O)C[C@H]1O.NC(CO)(CO)CO [CARBOPROST TROMETHAMINE] | 0 | No-Dili-Concern

From ChEMBL document CHEMBL4028802, “DILIrank: the largest reference drug list ranked by the risk for developing drug-induced liver injury in humans” (Drug Discov Today, 2016)
